Assay results as given in publication PMC7501296, “Rapid and direct control of target protein levels with VHL-recruiting dTAG molecules” (Nature Communications, 2020).
Values joined by “and” are separate entries in the source; they are usually repeats but may differ in a detail not shown here. Equal values may be shown once.

Columns and labels:
[1] = tested on: PATU-8902 LACZ-FKBP12^F36V clone; experiment: Antiproliferation, PATU-8902 LACZ-FKBP12F36V clone, 3D-spheroid (CellTiter-Glo); format: cell-based
Method in brief: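 Viability of cells grown as ultra-low adherent 3D-spheroids was determined with the CellTiter-Glo reagent (Promega). Luminescence was read on either an Envision 2104 plate reader (PerkinElmer) or a Fluostar Omega Reader (BMG Labtech). The resulting data were analyzed with GraphPad PRISM v8.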

[2] = tested on: PATU-8902 LACZ-FKBP12^F36V clone; experiment: Quantitative MS proteomics, PATU-8902 LACZ-FKBP12F36V clone; format: cell-based, Homo sapiens; details: for TMT intensity per TMT channel: PATU-8902 LACZ-FKBP12F36V samples, biological replicates
Description: Cell pellets from PATU-8902 and EWS502 cells were lysed using 8 M urea, 200 mM 4-(2-hydroxyethyl)-1-piperazinepropanesulfonic acid (EPPS) at pH 8.5 with protease inhibitors. Samples were further homogenized and DNA was sheered via sonication using a probe sonicator (20 × 0.5 s pulses; level 3). Total protein was determined using a BCA assay and stored at −80 °C until future use. A total of 100 µg of protein was aliquoted for each condition and TMT channel for further downstream processing. Protein extracts were reduced using 10 mM dithiothreitol (DTT) for 30 min at room temperature. Next, samples were alkylated with 20 mM iodoacetamide for 45 min in the dark at room temperature. To facilitate the removal of incompatible reagents, proteins were precipitated using chloroform methanol. Briefly, to 100 µL of each sample, 400 µL of methanol was added, followed by 100 µL of chloroform with thorough vortexing. Next, 300 µL of HPLC grade water was added and samples were vortexed thoroughly. Each sample was centrifuged at 14,000 × g for 5 min at room temperature. The upper aqueous layer was removed and the protein pellet was washed twice with methanol and centrifuged at 14,000 × g for 5 min at room temperature. Protein pellets were resolubilized in 200 mM EPPS buffer and digested overnight with Lys-C (1:100, enzyme:protein ratio) at room temperature. The next day, trypsin (1:100 ratio) was added and incubated at 37 °C for an additional 6 h in a ThermoMixer set to 1000 RPM.
To each digested sample, 30% anhydrous acetonitrile was added and 100 µg of peptides were labeled using 200 µg of TMT reagent (TMT1-TMT11). Following labeling, a 5% hydroxylamine solution was used to quench excess TMT reagent. To equalize protein loading, a ratio check was performed by pooling 2 µg of each TMT-labeled sample. Samples were pooled and desalted using in-house packed C18 StageTips and analyzed by LC-MS/MS. Normalization factors were calculated from this label check, samples were mixed 1:1 across all TMT channels and desalted using a 100 mg Sep-Pak solid phase extraction cartridge. Eluted pooled peptides were further fractionated with basic-pH reverse-phase (bRP) HPLC using an Agilent 300 extend C18 column and collected into a 96 deep-well plate. Samples were consolidated into 24 fractions, and 12 nonadjacent fraction were desalted using StageTips prior to analyses using LC-MS/MS[35]–[37].
All mass spectrometry data was acquired using an Orbitrap Fusion mass spectrometer in-line with a Proxeon NanoLC-1000 UHPLC system. Peptides were separated using an in-house 100 µm capillary column packed with 40 cm of Accucore 150 resin (2.6 µm, 150 Å) (Thermo Fisher Scientific) using a 180 min LC gradient per fraction. Eluted peptides were acquired using synchronous precursor selection (SPS-MS3) method for TMT quantification. Briefly, MS1 spectra were acquired at 120 K resolving power with a maximum of 50 ms in the Orbitrap. MS2 spectra were acquired by selecting the top ten most abundant features via collisional induced dissociation (CID) in the ion trap using an automatic gain control (AGC) of 15 K, quadrupole isolation width of 0.7 m/z and a maximum ion time of 100 ms. For MS3 acquisition, a synchronous precursor selection of ten fragment ions was acquired with an AGC of 150 K for 150 ms and a normalized collision energy of 55.
All acquired raw data were converted to mzXML using Raw File Reader (v3.0.77). Spectra were processed using Comet (2019.01.5)[39]–[41], search results were filtered using the LDA function MASS Package in R, and data were processed using an in-house informatics pipeline[42]–[44]. Custom code was not developed in this study. Briefly, peptide spectral libraries were first filtered to a peptide false discovery rate (FDR) of less than 1% using linear discriminant analysis employing a target decoy strategy. […]

[3] = 120 h, log10[compound] (M) -5.69897, single replicates
[4] = 120 h, log10[compound] (M) -6.19897, single replicates
[5] = 120 h, log10[compound] (M) -6.69897, single replicates
[6] = 120 h, log10[compound] (M) -7.19897, single replicates
[7] = 120 h, log10[compound] (M) -7.69897, single replicates
[8] = 120 h, log10[compound] (M) -8.19897, single replicates
[9] = 120 h, log10[compound] (M) -8.69897, single replicates
[10] = 120 h, log10[compound] (M) -9.19897, single replicates
[11] = 120 h, log10[compound] (M) -9.69897, single replicates
[12] = 120 h, log10[compound] (M) -10.199, single replicates
[13] = protein LACZ-FKBP12F36V, 500 nM, 4 h

**Q.** For `CC[C@H](C(=O)N1CCCC[C@H]1C(=O)O[C@H](CCc1ccc(OC)c(OC)c1)c1ccccc1OCC(=O)NCCCCCCC(=O)N[C@H](C(=O)N1C[C@H](O)C[C@H]1C(=O)N[C@@H](C)c1ccc(-c2scnc2C)cc1)C(C)(C)C)c1cc(OC)c(OC)c(OC)c1` [dTAG^V-1], which DMSO-normalized antiproliferation [1, 3] is on record?
**A.** The DMSO-normalized antiproliferation was 79.9207 and 69.7647 and 81.656 and 63.0972.

**Q.** What about the DMSO-normalized antiproliferation [1, 4] of the same compound?
**A.** The DMSO-normalized antiproliferation was 90.8255 and 93.4576 and 97.8876 and 88.6015.

**Q.** What about the DMSO-normalized antiproliferation [1, 5] of the same compound?
**A.** The DMSO-normalized antiproliferation was 116.805 and 103.649 and 110.913 and 111.967.

**Q.** What about the DMSO-normalized antiproliferation [1, 6] of the same compound?
**A.** Its DMSO-normalized antiproliferation is 115.092 and 118.114 and 123.495 and 124.235.

**Q.** What about the DMSO-normalized antiproliferation [1, 7] of the same compound?
**A.** Its DMSO-normalized antiproliferation is 125.383 and 125.544 and 131.956 and 99.7395.

**Q.** What about the DMSO-normalized antiproliferation [1, 8] of the same compound?
**A.** The DMSO-normalized antiproliferation was 91.6326 and 122.778 and 124.271 and 121.832.

**Q.** What about the DMSO-normalized antiproliferation [1, 9] of the same compound?
**A.** Its DMSO-normalized antiproliferation is 107.048 and 111.088 and 112.061 and 114.671.

**Q.** What about the DMSO-normalized antiproliferation [1, 10] of the same compound?
**A.** Its DMSO-normalized antiproliferation is 123.177 and 113.909 and 103.784 and 113.953.

**Q.** And the DMSO-normalized antiproliferation [1, 11]?
**A.** The DMSO-normalized antiproliferation was 118.276 and 100.412 and 114.859 and 101.744.

**Q.** What about the DMSO-normalized antiproliferation [1, 12] of the same compound?
**A.** Its DMSO-normalized antiproliferation is 96.4797 and 95.686 and 104.084 and 100.448.

**Q.** And the “Protein levels of VHL or VHL-regulated targets” value ([2]; 500 nM, 4 h)?
**A.** The value was “No significant changes”.

**Q.** And the “log2 (Fold change) compared to DMSO” value ([2]; protein BCAR3, 500 nM, 4 h)?
**A.** Its value is 0.1578.

**Q.** What about the “TMT intensity per TMT channel” value ([2]; protein CDK12) of the same compound?
**A.** Its value is 2772.29 and 2668.65 and 2839.83.

**Q.** And the “log2 (Fold change) compared to DMSO” value ([2]; protein CYBA, 500 nM, 4 h)?
**A.** Its value is -0.2931.

**Q.** And the “TMT intensity per TMT channel” value ([2]; protein INCENP)?
**A.** The value was 2143.95 and 2638.07 and 2856.47.

**Q.** And the “TMT intensity per TMT channel” value ([2]; protein IRS2)?
**A.** The value was 352.3 and 336.062 and 338.748.

**Q.** What about the “Fold change < -2” value [2, 13] of the same compound?
**A.** Its value is “+ (Fold change in which '+' refers to fold change < -2.)”.

**Q.** What about the “log2 (Fold change) compared to DMSO” value [2, 13] of the same compound?
**A.** Its value is -1.082.

**Q.** And the “log2 (Fold change) compared to DMSO” value ([2]; protein RAB18, 500 nM, 4 h)?
**A.** The value was -0.08378.

**Q.** What about the “log2 (Fold change) compared to DMSO” value ([2]; protein SEPTIN10, 500 nM, 4 h) of the same compound?
**A.** Its value is 0.1418.

**Q.** And the “TMT intensity per TMT channel” value ([2]; protein SLC12A2)?
**A.** The value was 1789.71 and 1681.54 and 1827.76.

**Q.** And the “TMT intensity per TMT channel” value ([2]; protein SLC15A4)?
**A.** The value was 231.802 and 205.301 and 235.055.

**Q.** What does the source list for `CC[C@H](C(=O)N1CCCC[C@H]1C(=O)O[C@H](CCc1ccc(OC)c(OC)c1)c1ccccc1OCC(=O)NCCCCCCOc1cccc2c1C(=O)N(C1CCC(=O)NC1=O)C2=O)c1cc(OC)c(OC)c(OC)c1` (stereo partly drawn) [dTAG-13]?
**A.** DMSO-normalized antiproliferation ([1]; log10[compound] (M) -5.69897, replicate values): 83.5347 and 77.755 and 106.784 and 100.802; DMSO-normalized antiproliferation ([1]; log10[compound] (M) -6.19897, replicate values): 108.447 and 95.2018 and 93.9194 and 111.801; DMSO-normalized antiproliferation ([1]; log10[compound] (M) -6.69897, replicate values): 105.932 and 113.702 and 105.116 and 107.515; DMSO-normalized antiproliferation ([1]; log10[compound] (M) -7.19897, replicate values): 104.318 and 154.981 and 104.434 and 95.3632; DMSO-normalized antiproliferation ([1]; log10[compound] (M) -7.69897, replicate values): 98.1432 and 118.54 and 142.668 and 106.77; DMSO-normalized antiproliferation ([1]; log10[compound] (M) -8.19897, replicate values): 105.712 and 98.6185 and 105.909 and 92.2738; DMSO-normalized antiproliferation ([1]; log10[compound] (M) -8.69897, replicate values): 108.958 and 119.361 and 97.2958 and 103.25; DMSO-normalized antiproliferation ([1]; log10[compound] (M) -9.19897, replicate values): 89.1127 and 99.6498 and 108.86 and 111.989; DMSO-normalized antiproliferation ([1]; log10[compound] (M) -9.69897, replicate values): 97.9056 and 108.178 and 110.59 and 112.891; DMSO-normalized antiproliferation ([1]; log10[compound] (M) -10.199, replicate values): 91.8389 and 92.6594 and 105.927 and 94.166; TMT intensity per TMT channel ([2]; protein CDK12): 2762.51 and 2603.47; TMT intensity per TMT channel ([2]; protein INCENP): 2716.3 and 2681.24; TMT intensity per TMT channel ([2]; protein IRS2): 372.779 and 399.852; TMT intensity per TMT channel ([2]; protein SLC12A2): 1746.63 and 1711.2; TMT intensity per TMT channel ([2]; protein SLC15A4): 223.037 and 230.942

**Q.** What does the source list for `CCC(C(=O)N1CCCCC1C(=O)OC(CCc1ccc(OC)c(OC)c1)c1ccccc1OCC(=O)NCCCCCCC(=O)NC(C(=O)N1CC(O)CC1C(=O)NC(C)c1ccc(-c2scnc2C)cc1)C(C)(C)C)c1cc(OC)c(OC)c(OC)c1` (stereo not drawn) [dTAG^V-1-NEG]?
**A.** DMSO-normalized antiproliferation [1, 3]: 68.4913 and 65.8862 and 68.8321 and 78.0465; DMSO-normalized antiproliferation [1, 4]: 88.8571 and 103.865 and 101.246 and 98.2508; DMSO-normalized antiproliferation [1, 5]: 91.2022 and 101.677 and 109.864 and 107.932; DMSO-normalized antiproliferation [1, 6]: 113.68 and 101.811 and 126.495 and 101.479; DMSO-normalized antiproliferation [1, 7]: 124.531 and 121.356 and 110.765 and 105.317; DMSO-normalized antiproliferation [1, 8]: 119.921 and 92.6191 and 101.851 and 115.03; DMSO-normalized antiproliferation [1, 9]: 108.505 and 98.1611 and 108.837 and 115.846; DMSO-normalized antiproliferation [1, 10]: 113.362 and 108.537 and 123.253 and 101.067; DMSO-normalized antiproliferation [1, 11]: 112.187 and 102.493 and 128.974 and 86.9201; DMSO-normalized antiproliferation [1, 12]: 94.0987 and 98.1746 and 115.316 and 84.3777; TMT intensity per TMT channel ([2]; protein CDK12): 2630.52 and 3108.44 and 2718.26; log2 (Fold change) compared to DMSO ([2]; protein CRY1, 500 nM, 4 h): -0.9118; TMT intensity per TMT channel ([2]; protein INCENP): 2713.73 and 2977.66 and 2766.34; TMT intensity per TMT channel ([2]; protein IRS2): 358.215 and 458.696 and 391.289; log2 (Fold change) compared to DMSO ([2]; protein LITAF, 500 nM, 4 h): -0.2196; log2 (Fold change) compared to DMSO ([2]; protein MPRIP, 500 nM, 4 h): -0.5841; log2 (Fold change) compared to DMSO ([2]; protein RIOX1, 500 nM, 4 h): 0.1069; log2 (Fold change) compared to DMSO ([2]; protein SGTA, 500 nM, 4 h): 0.1473; TMT intensity per TMT channel ([2]; protein SLC12A2): 1702.64 and 1563.99 and 1824.49; TMT intensity per TMT channel ([2]; protein SLC15A4): 247.423 and 199.538 and 213.085
